Experimental data as given in patent US5571819A, “Imidazopyridines as muscarinic agents” (priority 1994, dated 1996).
Read-outs that look alike come from different tables or passages of the source.

How the values were obtained:
[1] = molecular target: T1, ml receptors (muscarinic receptor subtypes) (Homo sapiens, UniProt P11229); experiment: biochemical; format: binding
T1 sequence (P11229 1-460): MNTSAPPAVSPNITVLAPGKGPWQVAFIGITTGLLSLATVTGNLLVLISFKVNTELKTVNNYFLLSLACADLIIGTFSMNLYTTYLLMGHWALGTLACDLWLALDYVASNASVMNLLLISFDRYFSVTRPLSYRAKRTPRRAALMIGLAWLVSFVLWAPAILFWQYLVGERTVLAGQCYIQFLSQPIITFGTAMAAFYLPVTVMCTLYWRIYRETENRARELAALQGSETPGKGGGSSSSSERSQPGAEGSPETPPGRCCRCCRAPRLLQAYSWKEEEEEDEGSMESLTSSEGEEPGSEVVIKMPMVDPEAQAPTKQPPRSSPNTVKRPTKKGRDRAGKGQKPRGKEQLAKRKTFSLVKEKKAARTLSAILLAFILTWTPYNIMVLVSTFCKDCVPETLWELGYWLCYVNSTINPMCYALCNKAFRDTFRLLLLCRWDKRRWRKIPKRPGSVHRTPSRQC

[2] = in vivo; cited from earlier work
[3] = system: patients with mild to moderate Alzheimer's Disease; conditions: cited from earlier work; for improvement in memory in patients: mild to moderate Alzheimer's Disease
[4] = molecular target: T2, M1 acetylcholine receptors (Homo sapiens, UniProt P11229); experiment: Stimulation of phosphoinositide (PI) hydrolysis in CHO cells expressing M1 acetylcholine receptors; format: cell-based; conditions: 1 h, read-out: % PI Hydrolysis ml receptors in CHO cells maximum %, carbachol = 100%
T2 sequence (P11229 1-460): T1 sequence (P11229 1-460)

[5] = ml 3H QNB Binding in CHO cells Ki (μM), [3H]QNB 0.23 nM, 37 °C, 1 hour, CHO cells, ml
[6] = read-out: ml 3H QNB Binding in CHO cells Ki, [3H]QNB 0.23 nM, 37 °C, 1 hour, CHO cells, ml

Row | Compound | Ki [1, 5] [µM] | other results
1 | c1ccc(Cn2cnc3c(OC4CN5CCC4CC5)nccc32)cc1 (stereo not drawn) [Example 5, 3-(1-Benzyl-1H-imidazo[4,5-c]pyridin-4-yloxy)-1-aza-bicyclo[2.2.2]octane] | 3.85 | 
2 | OC1(c2nc3c(Cl)nccc3n2Cc2ccccc2)CN2CCC1CC2 (stereo not drawn) [Example 14, 3-(1-Benzyl-4-chloro-1H-imidazo[4,5-c]pyridin-2-yl)-1-azabicyclo[2.2.2]octan-3-ol] | 1.65 | 
3 | Cn1cnc2c(OCC3CN4CCC3CC4)nccc21 (stereo not drawn) [Example 8, 3-(1-Methyl-1H-imidazo[4,5,c]pyridin-4-yloxymethyl)-1-aza-bicyclo[2.2.2]octane] | 2.65 | 
4 | c1ccc(Cn2cnc3c(OC4CN5CCC4CC5)nccc32)cc1 (single isomer, unassigned) [Example 7, (--)-3-(1-Benzyl-1H-imidazo[4,5-c]pyridin-4-yloxy)-1-aza-bicyclo[2.2.2]octane] | 17.6 | 
5 | Cn1cnc2c(O[C@@H]3CN4CC[C@@H]3C4)ncnc21 (relative stereo) [Example 10, exo-6-(1Aza-bicyclo[2,2.1]hept-3-yloxy)-9-methylpurine] | 17.1 | 
6 | COC(=O)C1=CCCN(C)C1 [arecoline] |  | half-life [2]: short half-life; improvement in memory in patients [3]: memory improvement in patients with mild to moderate Alzheimer's Disease
7 | Cn1cnc2c(O[C@@H]3CN4CC[C@@H]3C4)nccc21 (relative stereo) [Example 4, (exo)-4-(1-Aza-bicyclo[2,2,1]hept-3-yloxy)-1-methyl-1H-imidazo[4,5-c]pyridine] |  | Ki [1, 6]: 20.6 µM
8 | Cn1cnc2c(O[C@H]3CN4CC[C@@H]3C4)ncnc21 (relative stereo) [Example 9, endo-6-(1Aza-bicyclo[2.2,1]hept-3-yloxy)-9-methylpurine] | 27 | 
9 | Cn1c(C2(O)CN3CCC2CC3)nc2ncccc21 (stereo not drawn) [Example 13, 3-(1-Methyl-1H-imidazo[4,5-b]pyridin-2-yl)-1-aza-bicyclo[2.2.2]octan-3-ol] |  | Ki [1, 6]: 1.42 µM
10 | Cn1cnc2c(O[C@H]3CN4CC[C@@H]3C4)nccc21 (relative stereo) [Example 1, endo-4-(1-Aza-bicyclo[2.2.1]hept-3-yloxy)-1-methyl-1H-imidazo[4,5-c]pyridine] | 19.3 | Emax [4]: 21.7%
11 | CCN1CCCC(O)(c2nc3c(Cl)nccc3n2Cc2ccccc2)C1 (stereo not drawn) [Example 15, 3-(1-Benzyl-4-chloro-1H-imidazo[4,5-c]pyridin-2-yl)-1-ethyl-piperidin-3-ol] |  | Ki ([1]; read-out: ml 3H QNB Binding in CHO cells Ki): 9.3 µM
12 | c1ccc(Cn2cnc3c(OC4CN5CCC4CC5)nccc32)cc1 (single isomer, unassigned; (+)) [Example 6, (+)-3-(1-Benzyl-1H-imidazo[4,5-c]pyridin-4-yloxy)-1-aza-bicyclo[2.2.2]octane] | 13.4 | 
13 | Cn1cnc2c(O[C@H]3CN4CC[C@@H]3C4)nccc21 (single isomer, unassigned) [Example 3, (-)-endo-4-(1-Aza-bicyclo[2.2.1]hept-3-yloxy)-1-methyl-1H-imidazo[4,5-c]pyridine] | 14.2 | Emax [4]: 26.2%
14 | Nc1c2c(nc3ccccc13)CCCC2 [tacrine] |  | adverse side effects ([3]; especially at the higher doses): adverse side effects especially at the higher doses where it is most effective; improvement in memory in patients [3]: improvement in memory can be shown in patients with mild to moderate Alzheimer's Disease
